Reference: article PMC6070797 (Marine Drugs, 2018)

Assays:
IMPDH2 = biological target: T1, IMPDH2 (Homo sapiens, UniProt P12268); assay: IMPDH2 enzyme inhibition assay (recombinant protein, absorbance at 340 nm); format: biochemical; settings: recombinant IMPDH2, IMP and NAD+ substrates, pH 7.2, 37 °C; mean ± SD of three triplicate experiments; read-out: IC50 Inosine-5′-Monophosphate Dehydrogenase (IMPDH2)
T1 construct: made in house; host or cells: Escherichia coli BL21(DE3)
Method: The gene encoding IMPDH2 was cloned into the pET-28a vector (Novagen). After the recombinant plasmids were verified by sequencing, the plasmid was transformed into Escherichia coli BL21(DE3) (Invitrogen), which was grown in LB medium at 37 °C to an OD600 (0.8–1.0) and induced by 0.4 mM isopropyl-D-thiogalactopyranoside (IPTG) and grown at 20 °C for 16 h. The cell pellet was harvested and re-suspended in 30 mL buffer (20 mM Tris pH 8.5, 200 mM NaCl, and 10 mM imidazole), followed by disruption on a French press. Cell debris was removed by centrifugation at 21,000 rpm for 30 min. […] The protein was further purified with size exclusion chromatography at 20 mM Tris pH 8.5 and 200 mM NaCl.
The IMPDH2 inhibitory effects of test compounds were measured using the recombinant protein above. The enzyme solution (20 µL, 10 µg/mL), test compounds (10 µL) and buffer (40 µL, 100 mM phosphate buffer, pH 7.2) were pipetted and mixed in a 96-well microtiter plate. The mixture was incubated for 10 min at 37 °C. After incubation, inosine 5′-monophosphate (IMP) substrate solution (30 µL, 2.5 mM) and NAD^+ (30 µL, 5 mM) were added. The reaction can be readily monitored by an increase in optical absorbance at 340 nm. […] The data were imported into Prism (version 5.0, GraphPad) and the IC50 values were calculated by using a standard dose response curve fitting.

[1] = system: Mouse splenocyte proliferation (T lymphocytes); assay: Immunosuppressive activity: ConA-induced proliferation of mouse splenocytes (T lymphocytes), CCK8; format: cell-based, BALB/c mice; settings: BALB/c spleen cells, 5 μg/mL ConA, 24 h, mean ± SD of three triplicate experiments
Description: To assess the biological activity of the MPA derivatives, we primarily evaluated their IMPDH2 inhibitory activity with the previously reported enzyme assay method. […] Subsequently, the MPA derivatives were further tested for the in vitro immunosuppressive activity against the proliferation of T lymphocytes. Unsurprisingly, the activity at the cellular level was markedly consistent with their IMPDH2 inhibitory activity.
BALB/c mice were sacrificed by cervical dislocation, and the spleens were removed aseptically. Mononuclear cell suspensions were prepared after cell debris, and clumps were removed. Erythrocytes were depleted with ammonium chloride buffer solution. Lymphocytes were washed and suspended in DMEM medium supplemented with 10% FBS, penicillin (100 U/mL), and streptomycin ([…]). The 5 × 10^5 (150 μL per well) spleen cells in 96-well microtiter plates were cultured at 37 °C in a humidified and 5% CO2-containing incubator for 24 h in the presence or absence of the serious concentrations (ranging from 0.1 to 100 µM) of compounds. The cultures were stimulated with 5 μg/mL of concanavalin A (ConA) to induce T cells proliferative response. After treatment for 24 h, the cell quantity was measured using a CCK8 assay kit according to the manufacturer’s instructions.

In the case of `COCc1c2c(c(O)c(C/C=C(\C)CCC(=O)O)c1OC)C(=O)OC2` [Compound 1, 8-O-methyl mycophenolic acid], the IC50 (IMPDH2) is reported as 0.92 ± 0.08 µM and the IC50 [1] is reported as 4.21 ± 0.2 µM.

With `COc1c(C)c2c(c(O)c1C/C=C(\C)CCC(=O)O)C(=O)OC2O` (stereo not drawn) [Compound 2, 3-hydroxy mycophenolic acid] the IC50 (IMPDH2) was 0.95 ± 0.09 µM and the IC50 [1] was 1.23 ± 0.07 µM.

In the case of `COc1c(C)c2c(c(O)c1C/C=C(\C)CCC(=O)O)C(=O)OC2OC` (stereo not drawn) [Compound 3, 6-(5-carboxy-3-methylpent-2-enyl)-7-hydroxy-3,5-dimethoxy-4-methylphthalan-1-one], the IC50 (IMPDH2) is reported as 0.84 ± 0.11 µM and the IC50 [1] is reported as 2.76 ± 0.13 µM.

Compound `COC(=O)CC/C(C)=C/Cc1c(O)c2c(c(C)c1OC)C(O)OC2=O` (stereo not drawn) [Compound 4, 6-(5-methoxycarbonyl-3-methylpent-2-enyl)-3,7-dihydroxy-5-methoxy-4-methylphthalan-1-one] has an IC50 (IMPDH2) of 3.27 ± 0.18 µM and an IC50 [1] of 9.12 ± 0.38 µM.

`COc1c(C)c2c(c(O)c1CCC(C)C(=O)O)C(=O)OC2` (stereo not drawn) [Compound 5, 6-(3-carboxybutyl)-7-hydroxy-5-methoxy-4-methylphthalan-1-one] was tested, and the IC50 (IMPDH2) was 24.7 ± 2.74 µM and the IC50 [1] was > 40 µM.

`COc1c(C)c2c(c(O)c1C/C=C(\C)CCC(=O)OCC(O)CO)C(=O)OC2` (stereo not drawn) [Compound 6, 6-[5-(2,3-dihydroxy-1-carboxyglyceride)-3-methylpent-2-enyl]-7-hydroxy-5-methoxy-4-methylphthalan-1-one] was tested, and the IC50 (IMPDH2) was 8.59 ± 0.43 µM and the IC50 [1] was 19.7 ± 0.89 µM.

In the case of `COc1c(C)c2c(c(O)c1C/C=C(\C)CCC(=O)NCCCC(=O)O)C(=O)OC2` [Compound 7, 6-[5-(1-carboxy-4-N-carboxylate)-3-methylpent-2-enyl]-7-hydroxy-5-methoxy-4-methylphthalan-1-one], the IC50 (IMPDH2) is reported as 12.6 ± 1.86 µM and the IC50 [1] is reported as 24.6 ± 1.34 µM.

`COc1c(C)c2c(c(O)c1C/C=C(\C)CCC(=O)N[C@H](C(=O)O)C(C)C)C(=O)OC2` [Compound 8, N-mycophenoyl-L-valine] gave an IC50 (IMPDH2) of 15.7 ± 1.65 µM and an IC50 [1] of 30.6 ± 2.19 µM.

In the case of `COc1c(C)c2c(c(O)c1C/C=C(\C)CCC(=O)N[C@@H](Cc1ccccc1)C(=O)O)C(=O)OC2` [Compound 9, N-mycophenoyl-L-phenyloalanine], the IC50 (IMPDH2) is reported as 23.8 ± 3.54 µM and the IC50 [1] is reported as > 40 µM.

For `COc1c(C)c2c(c(O)c1C/C=C(\C)CCC(=O)N[C@@H](C)C(=O)O)C(=O)OC2` [Compound 10, N-mycophenoyl-L-alanine], the IC50 (IMPDH2) was 17.5 ± 1.3 µM and the IC50 [1] was > 40 µM.

Compound `COc1c(C)c2c(c(O)c1C/C=C(\C)CCC(=O)O)C(=O)OC2` [MPA (11), Mycophenolic acid, reference compound] has an IC50 [1] of 0.96 ± 0.05 µM.
